Laboratory results from ChEMBL document CHEMBL2375322, “Synthesis using microwave irradiation and antibacterial evaluation of new N,O-acetals and N,S-acetals derived from 2-amino-1,4-naphthoquinones” (2013).
Converted amounts (≈) assume the structure as drawn. The source made the active and inactive calls. The calls are words filed in the database; no cut-off is given here.

Assays:
Format in all cases: functional
[1] = test system: Staphylococcus epidermidis; test: Antibacterial activity against oxacillin-resistant Staphylococcus epidermidis after 18 to 24 hrs by disc diffusion assay
[2] = test system: Staphylococcus haemolyticus; test: Antibacterial activity against oxacillin-resistant Staphylococcus haemolyticus after 18 to 24 hrs by disc diffusion assay
Staphylococcus aureus [3] = test: Antibacterial activity against oxacillin-resistant Staphylococcus aureus after 18 to 24 hrs by disc diffusion assay
Pseudomonas aeruginosa [4] = test: Antibacterial activity against Pseudomonas aeruginosa after 18 to 24 hrs by disc diffusion assay
Klebsiella pneumoniae [5] = test: Antibacterial activity against Klebsiella pneumoniae after 18 to 24 hrs by disc diffusion assay
Staphylococcus aureus [6] = test: Antibacterial activity against Staphylococcus aureus ATCC 25923 after 18 to 24 hrs by disc diffusion assay
Staphylococcus aureus [7] = test: Antibacterial activity against methicillin-resistant Staphylococcus aureus after 18 to 24 hrs by disc diffusion assay
Staphylococcus aureus [8] = test: Antibacterial activity against Staphylococcus aureus after 18 to 24 hrs by disc diffusion assay
Pseudomonas aeruginosa [9] = test: Antibacterial activity against Pseudomonas aeruginosa after 18 to 24 hrs by broth macrodilution method
Staphylococcus aureus [10] = test: Antibacterial activity against Staphylococcus aureus after 18 to 24 hrs by broth macrodilution method
Klebsiella pneumoniae [11] = test: Antibacterial activity against Klebsiella pneumoniae after 18 to 24 hrs by broth macrodilution method
[12] = test system: Staphylococcus haemolyticus; test: Antibacterial activity against oxacillin-resistant Staphylococcus haemolyticus after 18 to 24 hrs by broth macrodilution method
Staphylococcus aureus [13] = test: Antibacterial activity against methicillin-resistant Staphylococcus aureus after 18 to 24 hrs by broth macrodilution method
Staphylococcus aureus [14] = test: Antibacterial activity against Staphylococcus aureus ATCC 25923 after 18 to 24 hrs by broth macrodilution method
Staphylococcus aureus [15] = test: Antibacterial activity against oxacillin-resistant Staphylococcus aureus after 18 to 24 hrs by broth macrodilution method
[16] = test system: Staphylococcus epidermidis; test: Antibacterial activity against oxacillin-resistant Staphylococcus epidermidis after 18 to 24 hrs by broth macrodilution method

SMILES: CC(C)(C)OCNC1=CC(=O)c2ccccc2C1=O
- inhibition [1]: inactive
- inhibition [2]: inactive
- inhibition (Staphylococcus aureus [3]): inactive
- inhibition (Pseudomonas aeruginosa [4]): inactive
- inhibition (Klebsiella pneumoniae [5]): inactive
- inhibition (Staphylococcus aureus [6]): inactive
- inhibition (Staphylococcus aureus [7]): inactive
- inhibition (Staphylococcus aureus [8]): inactive

SMILES: Cc1ccccc1SCNC1=CC(=O)c2ccccc2C1=O
- inhibition [1]: inactive
- inhibition [2]: inactive
- inhibition (Staphylococcus aureus [3]): inactive
- inhibition (Pseudomonas aeruginosa [4]): inactive
- inhibition (Klebsiella pneumoniae [5]): inactive
- inhibition (Staphylococcus aureus [6]): inactive
- inhibition (Staphylococcus aureus [7]): inactive
- inhibition (Staphylococcus aureus [8]): inactive

SMILES: CSc1ccc(SCNC2=CC(=O)c3ccccc3C2=O)cc1
- inhibition [1]: inactive
- inhibition [2]: inactive
- inhibition (Staphylococcus aureus [3]): inactive
- inhibition (Pseudomonas aeruginosa [4]): inactive
- inhibition (Klebsiella pneumoniae [5]): inactive
- inhibition (Staphylococcus aureus [6]): inactive
- inhibition (Staphylococcus aureus [7]): inactive
- inhibition (Staphylococcus aureus [8]): inactive

SMILES: CC1=C(NCSc2ccccc2)C(=O)c2ccccc2C1=O
- inhibition [1]: inactive
- inhibition [2]: inactive
- inhibition (Staphylococcus aureus [3]): inactive
- inhibition (Pseudomonas aeruginosa [4]): inactive
- inhibition (Klebsiella pneumoniae [5]): inactive
- inhibition (Staphylococcus aureus [6]): inactive
- inhibition (Staphylococcus aureus [7]): inactive
- inhibition (Staphylococcus aureus [8]): inactive

SMILES: COCNC1=CC(=O)c2ccccc2C1=O
- MIC (Pseudomonas aeruginosa [9]): ≥ 256 µg/mL
- diameter of the inhibition zone (DIZ) [1]: 14 mm
- MIC (Staphylococcus aureus [10]): 16 µg/mL (≈ 73.7 µM)
- MIC (Klebsiella pneumoniae [11]): 256 µg/mL (≈ 1180 µM)
- MIC [12]: 16 µg/mL (≈ 73.7 µM)
- MIC (Staphylococcus aureus [13]): 16 µg/mL (≈ 73.7 µM)
- MIC (Staphylococcus aureus [14]): 16 µg/mL (≈ 73.7 µM)
- diameter of the inhibition zone (DIZ) [2]: 20 mm
- diameter of the inhibition zone (DIZ) (Staphylococcus aureus [3]): 18 mm
- diameter of the inhibition zone (DIZ) (Pseudomonas aeruginosa [4]): 0 mm
- diameter of the inhibition zone (DIZ) (Klebsiella pneumoniae [5]): 17 mm
- MIC (Staphylococcus aureus [15]): 16 µg/mL (≈ 73.7 µM)
- diameter of the inhibition zone (DIZ) (Staphylococcus aureus [6]): 17 mm
- diameter of the inhibition zone (DIZ) (Staphylococcus aureus [7]): 16 mm
- diameter of the inhibition zone (DIZ) (Staphylococcus aureus [8]): 24 mm
- MIC [16]: 8 µg/mL (≈ 36.8 µM)

SMILES: O=C1C=C(NCOCc2cn(-c3ccccc3)nn2)C(=O)c2ccccc21
- inhibition [1]: inactive
- inhibition [2]: inactive
- inhibition (Staphylococcus aureus [3]): inactive
- inhibition (Pseudomonas aeruginosa [4]): inactive
- inhibition (Klebsiella pneumoniae [5]): inactive
- inhibition (Staphylococcus aureus [6]): inactive
- inhibition (Staphylococcus aureus [7]): inactive
- inhibition (Staphylococcus aureus [8]): inactive

SMILES: CN[C@H](CC(C)C)C(=O)N[C@H]1C(=O)N[C@@H](CC(N)=O)C(=O)N[C@H]2C(=O)N[C@H]3C(=O)N[C@H](C(=O)N[C@H](C(=O)O)c4cc(O)cc(O)c4-c4cc3ccc4O)[C@H](O)c3ccc(c(Cl)c3)Oc3cc2cc(c3O[C@@H]2O[C@H](CO)[C@@H](O)[C@H](O)[C@H]2O[C@H]2C[C@](C)(N)[C@H](O)[C@H](C)O2)Oc2ccc(cc2Cl)[C@H]1O [VANCOMYCIN]
- diameter of the inhibition zone (DIZ) [1]: 16 mm
- MIC [12]: 2 µg/mL (≈ 1.38 µM)
- diameter of the inhibition zone (DIZ) [2]: 16 mm
- diameter of the inhibition zone (DIZ) (Staphylococcus aureus [3]): 16 mm
- diameter of the inhibition zone (DIZ) (Staphylococcus aureus [6]): 16 mm
- diameter of the inhibition zone (DIZ) (Staphylococcus aureus [7]): 16 mm
- diameter of the inhibition zone (DIZ) (Staphylococcus aureus [8]): 16 mm

SMILES: COc1ccc(SCNC2=CC(=O)c3ccccc3C2=O)cc1
- inhibition [1]: inactive
- inhibition [2]: inactive
- inhibition (Staphylococcus aureus [3]): inactive
- inhibition (Pseudomonas aeruginosa [4]): inactive
- inhibition (Klebsiella pneumoniae [5]): inactive
- inhibition (Staphylococcus aureus [6]): inactive
- inhibition (Staphylococcus aureus [7]): inactive
- inhibition (Staphylococcus aureus [8]): inactive

SMILES: O=C1C=C(NCOCc2ccccc2)C(=O)c2ccccc21
- inhibition [1]: inactive
- inhibition [2]: inactive
- inhibition (Staphylococcus aureus [3]): inactive
- inhibition (Pseudomonas aeruginosa [4]): inactive
- inhibition (Klebsiella pneumoniae [5]): inactive
- inhibition (Staphylococcus aureus [6]): inactive
- inhibition (Staphylococcus aureus [7]): inactive
- inhibition (Staphylococcus aureus [8]): inactive

SMILES: CCOCNC1=CC(=O)c2ccccc2C1=O
- MIC (Pseudomonas aeruginosa [9]): 128 µg/mL (≈ 554 µM)
- diameter of the inhibition zone (DIZ) [1]: 10 mm
- MIC (Staphylococcus aureus [10]): 4 µg/mL (≈ 17.3 µM)
- MIC (Klebsiella pneumoniae [11]): ≥ 256 µg/mL
- MIC [12]: 64 µg/mL (≈ 277 µM)
- MIC (Staphylococcus aureus [13]): 32 µg/mL (≈ 138 µM)
- MIC (Staphylococcus aureus [14]): 8 µg/mL (≈ 34.6 µM)
- diameter of the inhibition zone (DIZ) [2]: 16 mm
- diameter of the inhibition zone (DIZ) (Staphylococcus aureus [3]): 17 mm
- diameter of the inhibition zone (DIZ) (Pseudomonas aeruginosa [4]): 14 mm
- diameter of the inhibition zone (DIZ) (Klebsiella pneumoniae [5]): 0 mm
- MIC (Staphylococcus aureus [15]): 32 µg/mL (≈ 138 µM)
- diameter of the inhibition zone (DIZ) (Staphylococcus aureus [6]): 15 mm
- diameter of the inhibition zone (DIZ) (Staphylococcus aureus [7]): 14 mm
- diameter of the inhibition zone (DIZ) (Staphylococcus aureus [8]): 18 mm
- MIC [16]: 16 µg/mL (≈ 69.2 µM)

SMILES: O=C1C=C(NCSc2ccccc2)C(=O)c2ccccc21
- inhibition [1]: inactive
- inhibition [2]: inactive
- inhibition (Staphylococcus aureus [3]): inactive
- inhibition (Pseudomonas aeruginosa [4]): inactive
- inhibition (Klebsiella pneumoniae [5]): inactive
- inhibition (Staphylococcus aureus [6]): inactive
- inhibition (Staphylococcus aureus [7]): inactive
- inhibition (Staphylococcus aureus [8]): inactive

SMILES: O=C1C=C(NCSc2ccc(F)cc2)C(=O)c2ccccc21
- inhibition [1]: inactive
- inhibition [2]: inactive
- inhibition (Staphylococcus aureus [3]): inactive
- inhibition (Pseudomonas aeruginosa [4]): inactive
- inhibition (Klebsiella pneumoniae [5]): inactive
- inhibition (Staphylococcus aureus [6]): inactive
- inhibition (Staphylococcus aureus [7]): inactive
- inhibition (Staphylococcus aureus [8]): inactive

SMILES: CC(C)OCNC1=CC(=O)c2ccccc2C1=O
- inhibition [1]: inactive
- inhibition [2]: inactive
- inhibition (Staphylococcus aureus [3]): inactive
- inhibition (Pseudomonas aeruginosa [4]): inactive
- inhibition (Klebsiella pneumoniae [5]): inactive
- inhibition (Staphylococcus aureus [6]): inactive
- inhibition (Staphylococcus aureus [7]): inactive
- inhibition (Staphylococcus aureus [8]): inactive

SMILES: C#CCOCNC1=CC(=O)c2ccccc2C1=O
- MIC (Pseudomonas aeruginosa [9]): 16 µg/mL (≈ 66.3 µM)
- diameter of the inhibition zone (DIZ) [1]: 10 mm
- MIC (Staphylococcus aureus [10]): 32 µg/mL (≈ 133 µM)
- MIC (Klebsiella pneumoniae [11]): ≥ 256 µg/mL
- MIC [12]: 32 µg/mL (≈ 133 µM)
- MIC (Staphylococcus aureus [13]): 64 µg/mL (≈ 265 µM)
- MIC (Staphylococcus aureus [14]): 32 µg/mL (≈ 133 µM)
- diameter of the inhibition zone (DIZ) [2]: 18 mm
- diameter of the inhibition zone (DIZ) (Staphylococcus aureus [3]): 12 mm
- diameter of the inhibition zone (DIZ) (Pseudomonas aeruginosa [4]): 18 mm
- diameter of the inhibition zone (DIZ) (Klebsiella pneumoniae [5]): 0 mm
- MIC (Staphylococcus aureus [15]): 256 µg/mL (≈ 1060 µM)
- diameter of the inhibition zone (DIZ) (Staphylococcus aureus [6]): 16 mm
- diameter of the inhibition zone (DIZ) (Staphylococcus aureus [7]): 16 mm
- diameter of the inhibition zone (DIZ) (Staphylococcus aureus [8]): 20 mm
- MIC [16]: 16 µg/mL (≈ 66.3 µM)

SMILES: O=C(O)c1cn(C2CC2)c2cc(N3CCNCC3)c(F)cc2c1=O [CIPROFLOXACIN]
- MIC (Pseudomonas aeruginosa [9]): 1 µg/mL (≈ 3.02 µM)
- MIC (Klebsiella pneumoniae [11]): 1 µg/mL (≈ 3.02 µM)
- diameter of the inhibition zone (DIZ) (Pseudomonas aeruginosa [4]): 22 mm
- diameter of the inhibition zone (DIZ) (Klebsiella pneumoniae [5]): 22 mm

SMILES: Cc1ccc(SCNC2=CC(=O)c3ccccc3C2=O)cc1
- inhibition [1]: inactive
- inhibition [2]: inactive
- inhibition (Staphylococcus aureus [3]): inactive
- inhibition (Pseudomonas aeruginosa [4]): inactive
- inhibition (Klebsiella pneumoniae [5]): inactive
- inhibition (Staphylococcus aureus [6]): inactive
- inhibition (Staphylococcus aureus [7]): inactive
- inhibition (Staphylococcus aureus [8]): inactive

SMILES: CCCSCNC1=CC(=O)c2ccccc2C1=O
- inhibition [1]: inactive
- inhibition [2]: inactive
- inhibition (Staphylococcus aureus [3]): inactive
- inhibition (Pseudomonas aeruginosa [4]): inactive
- inhibition (Klebsiella pneumoniae [5]): inactive
- inhibition (Staphylococcus aureus [6]): inactive
- inhibition (Staphylococcus aureus [7]): inactive
- inhibition (Staphylococcus aureus [8]): inactive
